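48-hour exposure; five concentrations; linearly interpolated endpoints. At the GI50, growth is halved.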 The source made the active and inactive calls. No stated cut-off is given here; in the data, active = GI50 up to about 1.1 µM and inactive = higher.
Key:
Assay in all cases: NCI-60 cell line screen, 48 h
786-0 = system: 786-0
CAKI-1 = system: CAKI-1
CCRF-CEM = system: CCRF-CEM
HCT-15 = system: HCT-15
HOP-62 = system: HOP-62
HT-29 = system: HT-29
IGROV-1 = system: IGROV-1
K562 = system: K562
KM12 = system: KM12
M14 = system: M14
OVCAR-3 = system: OVCAR-3
OVCAR-4 = system: OVCAR-4
RXF 393 = system: RXF 393
SF-268 = system: SF-268
SK-MEL-5 = system: SK-MEL-5
SK-OV-3 = system: SK-OV-3
SNB-19 = system: SNB-19
SW-620 = system: SW-620
UACC-257 = system: UACC-257
UACC-62 = system: UACC-62

Compound	GI50 (786-0)	GI50 (CAKI-1)	GI50 (CCRF-CEM)	GI50 (HCT-15) [µM]	GI50 (HOP-62)	GI50 (HT-29)	GI50 (IGROV-1)	GI50 (K562)	GI50 (KM12)	GI50 (M14)	GI50 (OVCAR-3)	GI50 (OVCAR-4)	GI50 (RXF 393)	GI50 (SF-268)	GI50 (SK-MEL-5)	GI50 (SK-OV-3)	GI50 (SNB-19)	GI50 (SW-620)	GI50 (UACC-257)	GI50 (UACC-62)
N#C/C(=C\c1cccc(O)c1)C(N)=O	> 100 µM (inactive)	> 100 µM (inactive)	> 100 µM (inactive)	> 100	> 100 µM (inactive)	> 100 µM (inactive)	> 100 µM (inactive)	> 100 µM (inactive)	> 100 µM (inactive)	> 100 µM (inactive)	> 100 µM (inactive)	> 100 µM (inactive)	61.4 µM (inactive)	> 100 µM (inactive)	> 100 µM (inactive)	> 100 µM (inactive)	> 100 µM (inactive)	> 100 µM (inactive)	> 100 µM (inactive)	> 100 µM (inactive)
Nc1nc(N)nc(CC(=O)O)n1	> 100 µM (inactive)	> 100 µM (inactive)	> 100 µM (inactive)	> 100	> 100 µM (inactive)	> 100 µM (inactive)	> 100 µM (inactive)	> 100 µM (inactive)	> 100 µM (inactive)	> 100 µM (inactive)	> 100 µM (inactive)	> 100 µM (inactive)	> 100 µM (inactive)	> 100 µM (inactive)	> 100 µM (inactive)	> 100 µM (inactive)	> 100 µM (inactive)	> 100 µM (inactive)	> 100 µM (inactive)	> 100 µM (inactive)
CC(=O)NNc1nc(C)c(C(/C=C/c2ccc(Cl)cc2)=N\NS(=O)(=O)c2ccc(C)cc2)s1	> 100 µM (inactive)	> 100 µM (inactive)	> 100 µM (inactive)	> 100	> 100 µM (inactive)	> 100 µM (inactive)	> 100 µM (inactive)	> 100 µM (inactive)	> 100 µM (inactive)	> 100 µM (inactive)	> 100 µM (inactive)	> 100 µM (inactive)	> 100 µM (inactive)	> 100 µM (inactive)	> 100 µM (inactive)	> 100 µM (inactive)	> 100 µM (inactive)	> 100 µM (inactive)	> 100 µM (inactive)	> 100 µM (inactive)
CCOC(=O)C1(C#N)C(c2ccccc2)CC(O)(c2ccc(Cl)cc2)C(C(=O)c2ccc(Cl)cc2)C1c1ccccc1 (stereo not given)	> 100 µM (inactive)	> 100 µM (inactive)	> 100 µM (inactive)	> 100	> 100 µM (inactive)	> 100 µM (inactive)	> 100 µM (inactive)	> 10 µM (inactive)	34 µM (inactive)	> 100 µM (inactive)	> 100 µM (inactive)	> 100 µM (inactive)	37.8 µM (inactive)	> 100 µM (inactive)	> 100 µM (inactive)	38.6 µM (inactive)	34 µM (inactive)	> 100 µM (inactive)	> 100 µM (inactive)	> 100 µM (inactive)
Clc1cc2ns[s+]c2cc1Cl	> 75.9 µM (inactive)	18.9 µM (inactive)	33.4 µM (inactive)	4.34	31.8 µM (inactive)	29.3 µM (inactive)	98.6 µM (inactive)	4.55 µM (inactive)	41 µM (inactive)	9.73 µM (inactive)	65 µM (inactive)	> 100 µM (inactive)	> 100 µM (inactive)	21.1 µM (inactive)	> 37 µM (inactive)	> 100 µM (inactive)	> 74.8 µM (inactive)	32.8 µM (inactive)	> 86.3 µM (inactive)	5.33 µM (inactive)
COc1ccc(C(SCCO)(c2ccccc2)c2ccc(OC)cc2)cc1	14.6 µM (inactive)	21 µM (inactive)	12.6 µM (inactive)	13.5	15.8 µM (inactive)	13.9 µM (inactive)	16.8 µM (inactive)	16.7 µM (inactive)	5.38 µM (inactive)	9.31 µM (inactive)	16.3 µM (inactive)	15.8 µM (inactive)	8.24 µM (inactive)	10.2 µM (inactive)	8 µM (inactive)	10.8 µM (inactive)	8.26 µM (inactive)	15.3 µM (inactive)	14.7 µM (inactive)	11.5 µM (inactive)
COc1ccc(/C=C/c2cc(O)cc(OC3OC(CO)C(O)C(O)C3O)c2)cc1O (stereo not given)	> 100 µM (inactive)	> 100 µM (inactive)	82.4 µM (inactive)	6.01	37 µM (inactive)	> 100 µM (inactive)	66.2 µM (inactive)	45.1 µM (inactive)	18.9 µM (inactive)	> 100 µM (inactive)	> 100 µM (inactive)	> 100 µM (inactive)	> 100 µM (inactive)	42.6 µM (inactive)	> 100 µM (inactive)	> 100 µM (inactive)	> 100 µM (inactive)	> 100 µM (inactive)	> 100 µM (inactive)	19.4 µM (inactive)
O=[N+]([O-])c1ccc(C(Cl)C(Cl)c2ccc(C(Cl)C(Cl)c3ccc([N+](=O)[O-])cc3[N+](=O)[O-])cc2)c([N+](=O)[O-])c1 (stereo not given)	1.39 µM (inactive)	1.67 µM (inactive)	0.232 µM (active)	1.19	3.01 µM (inactive)	1.76 µM (inactive)	2.05 µM (inactive)	0.187 µM (active)	0.264 µM (active)	0.879 µM (active)	0.254 µM (active)	1.52 µM (inactive)	0.964 µM (active)	1.89 µM (inactive)	0.991 µM (active)	22.8 µM (inactive)	0.671 µM (active)	0.75 µM (active)	1.72 µM (inactive)	1.16 µM (inactive)
CC(C)(C)OC(=O)CC(NC(=O)OC(C)(C)C)C(=O)NC(C(=O)O)C(O)c1ccccc1 (stereo not given)	> 100 µM (inactive)	> 100 µM (inactive)	51.4 µM (inactive)	> 100	> 100 µM (inactive)	75.3 µM (inactive)	> 100 µM (inactive)	46.9 µM (inactive)	97.7 µM (inactive)	> 100 µM (inactive)	> 100 µM (inactive)	> 100 µM (inactive)	57.9 µM (inactive)	50.2 µM (inactive)	56 µM (inactive)	41.7 µM (inactive)	> 100 µM (inactive)	40.3 µM (inactive)	> 100 µM (inactive)	37.5 µM (inactive)
CN(c1ccc(Cl)cc1)S(=O)(=O)c1ccc([N+](=O)[O-])cc1	> 100 µM (inactive)	> 100 µM (inactive)	> 100 µM (inactive)	> 100	> 100 µM (inactive)	> 100 µM (inactive)	> 100 µM (inactive)	> 100 µM (inactive)	> 100 µM (inactive)	> 100 µM (inactive)	> 100 µM (inactive)	> 100 µM (inactive)	> 100 µM (inactive)	> 100 µM (inactive)	26 µM (inactive)	> 100 µM (inactive)	> 100 µM (inactive)	> 100 µM (inactive)	> 100 µM (inactive)	> 100 µM (inactive)
COc1ccc(N2C(=O)C(Cl)C2c2cc3cc(Br)ccc3nc2Cl)cc1 (stereo not given)	6.17 µM (inactive)	6.32 µM (inactive)	1.86 µM (inactive)	4.71	6.44 µM (inactive)	4.68 µM (inactive)	5.12 µM (inactive)	7.24 µM (inactive)	10.9 µM (inactive)	4.86 µM (inactive)	8.45 µM (inactive)	4.36 µM (inactive)	4.09 µM (inactive)	6.38 µM (inactive)	4.37 µM (inactive)	16.6 µM (inactive)	9.93 µM (inactive)	5.55 µM (inactive)	5.2 µM (inactive)	4.37 µM (inactive)
CCCCCCCCCCCCOCCCOP(=O)([O-])OCC[N+](C)(C)C	10.8 µM (inactive)	13.2 µM (inactive)	21.1 µM (inactive)	25.6	43.2 µM (inactive)	17.3 µM (inactive)	6.14 µM (inactive)	48.8 µM (inactive)	2.95 µM (inactive)	32.8 µM (inactive)	51.9 µM (inactive)	22.1 µM (inactive)	9.75 µM (inactive)	30.3 µM (inactive)	48.6 µM (inactive)	50.8 µM (inactive)	20.6 µM (inactive)	63.5 µM (inactive)	> 76 µM (inactive)	28.1 µM (inactive)
COC(=O)C1=Cc2c(OC)cc(OC)c(OC)c2[C@H](c2cc(OC)c(OC)cc2OC)C1C(=O)OC (stereo not given in full)	> 100 µM (inactive)	> 100 µM (inactive)	64.7 µM (inactive)	> 100	> 100 µM (inactive)	> 100 µM (inactive)	> 100 µM (inactive)	20.1 µM (inactive)	> 100 µM (inactive)	> 100 µM (inactive)	> 100 µM (inactive)	99.5 µM (inactive)	> 100 µM (inactive)	> 100 µM (inactive)	> 100 µM (inactive)	> 100 µM (inactive)	> 100 µM (inactive)	> 100 µM (inactive)	> 10 µM (inactive)	> 100 µM (inactive)
CC(=O)OCCOCn1cnc2c(Cl)nc(Cl)nc21	21.4 µM (inactive)	0.275 µM (active)	6.37 µM (inactive)	3.64	17.7 µM (inactive)	15.4 µM (inactive)	14.3 µM (inactive)	2.44 µM (inactive)	18.2 µM (inactive)	17.1 µM (inactive)	14 µM (inactive)	19.1 µM (inactive)	> 10 µM (inactive)	17.9 µM (inactive)	18.1 µM (inactive)	> 10 µM (inactive)	31.2 µM (inactive)	12.4 µM (inactive)	17.1 µM (inactive)	16.1 µM (inactive)

From ChEMBL document CHEMBL1201862, “PubChem BioAssay data set” (2004)
